Experimental data: patent US8933233B2, “1,3,4-oxadiazole and 1,3,4-thiadiazole β-lactamase inhibitors” (priority 2012, dated 2015)
Where a name gives a salt, the structure may show the parent alone.

Experiments:
[1] = tested on: bacterial strains that express the class D cephalosporinase OXA-15; assay: Synergy MIC / standard BLI potentiation MIC assay, strains expressing OXA-15; type: cell-based, E. coli; details: in presence of a β-lactam; comparator Avibactam (CCC)
Protocol: (§1) Unless otherwise indicated, the activity of the BLI compounds can be described by the MIC value obtained from a Synergy MIC assay or a BLI potentiation assay (e.g as described herein), both of which are run in the presence of a β-lactam.
(§2) The experimental protocol was performed according to Clinical and Laboratory Standards Institute (CLSI) guidelines with modifications as described below (CLSI guidelines can be derived from the CLSI document M07-A9 published in January 2012: “Methods for Dilution Antimicrobial Susceptibility Tests for Bacteria That Grow Aerobically; Approved Standard-Ninth Edition”).
(§3) To prepare for MIC testing, frozen glycerol stocks of clinical isolates (Klebsiella pneumoniae, Eschericia coli, Enterobacter spp, Citrobacter spp, or Pseudomonas aeruginosa) were used to streak for isolated colonies on rich, non-selective, tryptic soy agar containing 5% sheep's blood (TSAB). Frozen glycerol stocks of laboratory engineered, isogenic E. coli strains, which contain cloned β-lactamase expressing plasmids were used to streak for isolated colonies on rich, selective LB agar supplemented with 25 μg/mL tetracycline to maintain the plasmid. All strains were incubated at 37° C. for 18-24 hrs.
(§4) On the day of testing, primary cultures were started by scraping off 5-10 colonies from the TSAB plates containing clinical strains or the tetracycline supplemented LB plates containing engineered strains. The clinical strain material was suspended in ˜5 mL of cation adjusted Mueller Hinton Broth (CAMHB) in 14 mL culture tubes. The engineered strain material was suspended in CAMHB (supplemented with 25 μg/mL tetracycline) in 14 mL culture tubes. All strains were incubated at 37° C. with aeration (200 rpm) for ˜2 hrs until the optical density at 600 nm (OD600) was ≧0.1.
(§5) The two compound components of the assay were each diluted in CAMHB and added to the 96-well broth microdilution assay plates. 50 μL of the β-lactam was added to each well of the assay plate in 2-fold dilutions with final concentrations ranging from 128 to 0.13 μg/mL. 25 μL of the BLI compound was added to all wells in the broth microdilution plates at a final concentration of 4 μg/mL. Inoculum cultures were prepared by standardizing the primary cultures to OD600=0.1 and then adding 20 μL of the adjusted primary culture per 1 mL CAMHB for clinical strains or CAMHB (supplemented with tetracycline at 100 μg/mL) for engineered strains, so that the final inoculum density was ˜10^5 colony forming units per milliliter. Diluted inoculum cultures were used to inoculate 25 μL per well in 96-well broth microdilution assay plates. The final volume of each well was 100 μL and contained a β-lactam at different concentrations, a BLIcompound at 4 μg/mL concentration, the bacterial culture at an OD600 of approximately 0.001 and when necessary tetracycline at 25 μg/mL.
(§6) Plates were incubated for 18-20 hours at 37° C. with aeration (200 rpm). Following incubation, growth was confirmed visually placing plates over a viewing apparatus (stand with a mirror underneath) and then OD600 was measured using a SpectraMax 340PC384 plate reader (Molecular Devices, Sunnyvale, Calif.). Growth was defined as turbidity that could be detected with the naked eye or achieving minimum OD600 of 0.1. MIC values were defined as the lowest concentration producing no visible turbidity.
(§7) The synergy MIC (sMIC) assay determines the concentration of the BLI required to potentiate the activity of a fixed concentration of a β-lactam antibiotic against β-lactamase producing bacterial strains. The experimental protocol was performed according to Clinical and Laboratory Standards Institute (CLSI) guidelines with modifications as described below (CLSI guidelines can be derived from the CLSI document M07-A9 published in January 2012: “Methods for Dilution Antimicrobial Susceptibility Tests for Bacteria That Grow Aerobically; Approved Standard-Ninth Edition”). […]

[2] = tested on: bacterial strains that express KPC β-lactamases; assay: Synergy MIC / standard BLI potentiation MIC assay, strains expressing KPC β-lactamases; type: cell-based, isogenic E. coli and clinical isolates; details: more active for at least one KPC strain and/or better spectrum; comparator Avibactam
Protocol: as §1, §2, §3, §4, §5, §6, §7

SMILES | activity against bacterial strains that express OXA-15, compared with Avibactam [1] | activity and/or spectrum of activity against bacterial strains that express KPC β-lactamases, compared with Avibactam [2]
O=C1N2C[C@@H](CC[C@H]2c2nnco2)N1OS(=O)(=O)O [Compound 701, (2S,5R)-2-(1,3,4-oxadiazol-2-yl)-7-oxo-1,6-diazabicyclo[3.2.1]octan-6-yl hydrogen sulfate] | more active than Avibactam | more active than Avibactam
O=C1N2C[C@@H](CC[C@H]2c2nnc(CNC3CNC3)o2)N1OS(=O)(=O)O [Compound 726, (2S,5R)-2-(5-((azetidin-3-ylamino)methyl)-1,3,4-oxadiazol-2-yl)-7-oxo-1,6-diazabicyclo[3.2.1]octan-6-yl hydrogen sulfate] | more active than Avibactam | more active than Avibactam
N=C(N)N1CC(NCc2nnc([C@@H]3CC[C@@H]4CN3C(=O)N4OS(=O)(=O)O)o2)C1 [Compound 746, (2S,5R)-2-(5-(((1-carbamimidoylazetidin-3-yl)amino)methyl)-1,3,4-oxadiazol-2-yl)-7-oxo-1,6-diazabicyclo[3.2.1]octan-6-yl hydrogen sulfate] | more active than Avibactam | more active than Avibactam
O=C1N2C[C@@H](CC[C@H]2c2nnc(CN[C@H]3CCNC3)o2)N1OS(=O)(=O)O [Compound 765, (2S,5R)-7-oxo-2-(5-(((S)-pyrrolidin-3-ylamino)methyl)-1,3,4-oxadiazol-2-yl)-1,6-diazabicyclo[3.2.1]octan-6-yl hydrogen sulfate] | more active than Avibactam | more active than Avibactam
N[C@H]1C[C@H](c2nnc([C@@H]3CC[C@@H]4CN3C(=O)N4OS(=O)(=O)O)s2)C1 [Compound 783, (2S,5R)-2-(5-((1r,3S)-3-aminocyclobutyl)-1,3,4-thiadiazol-2-yl)-7-oxo-1,6-diazabicyclo[3.2.1]octan-6-yl hydrogen sulfate] | more active than Avibactam | more active than Avibactam
N=C(N)NC1(Cc2nnc([C@@H]3CC[C@@H]4CN3C(=O)N4OS(=O)(=O)O)o2)CC1 [Compound 739, (2S,5R)-2-(5-((1-guanidinocyclopropyl)methyl)-1,3,4-oxadiazol-2-yl)-7-oxo-1,6-diazabicyclo[3.2.1]octan-6-yl hydrogen sulfate] | more active than Avibactam | more active than Avibactam
O=C1N2C[C@@H](CC[C@H]2c2nnc(CCCCNC3CCNCC3)o2)N1OS(=O)(=O)O [Compound 772, (2S,5R)-7-oxo-2-(5-(4-(piperidin-4-ylamino)butyl)-1,3,4-oxadiazol-2-yl)-1,6-diazabicyclo[3.2.1]octan-6-yl hydrogen sulfate] | more active than Avibactam | more active than Avibactam
O=C1N2C[C@@H](CC[C@H]2c2nnc(CCNC3CCNCC3)o2)N1OS(=O)(=O)O [Compound 770, (2S,5R)-7-oxo-2-(5-(2-(piperidin-4-ylamino)ethyl)-1,3,4-oxadiazol-2-yl)-1,6-diazabicyclo[3.2.1]octan-6-yl hydrogen sulfate] | more active than Avibactam | more active than Avibactam
NC1(Cc2nnc([C@@H]3CC[C@@H]4CN3C(=O)N4OS(=O)(=O)O)o2)CC1 [Compound 724, (2S,5R)-2-(5-((1-aminocyclopropyl)methyl)-1,3,4-oxadiazol-2-yl)-7-oxo-1,6-diazabicyclo[3.2.1]octan-6-yl hydrogen sulfate] | more active than Avibactam | more active than Avibactam
N[C@H]1C[C@@H](NCc2nnc([C@@H]3CC[C@@H]4CN3C(=O)N4OS(=O)(=O)O)o2)C1 [Compound 756, (2S,5R)-2-(5-((((1s,3R)-3-aminocyclobutyl)amino)methyl)-1,3,4-oxadiazol-2-yl)-7-oxo-1,6-diazabicyclo[3.2.1]octan-6-yl hydrogen sulfate] | more active than Avibactam | more active than Avibactam
N[C@@H]1CN[C@H](c2nnc([C@@H]3CC[C@@H]4CN3C(=O)N4OS(=O)(=O)O)o2)C1 [Compound 760, (2S,5R)-2-(5-((2S,4S)-4-aminopyrrolidin-2-yl)-1,3,4-oxadiazol-2-yl)-7-oxo-1,6-diazabicyclo[3.2.1]octan-6-yl hydrogen sulfate] | more active than Avibactam | more active than Avibactam
N=C(N)NC[C@H](O)c1nnc([C@@H]2CC[C@@H]3CN2C(=O)N3OS(=O)(=O)O)o1 [Compound 732, (2S,5R)-2-(5-((S)-2-guanidino-1-hydroxyethyl)-1,3,4-oxadiazol-2-yl)-7-oxo-1,6-diazabicyclo[3.2.1]octan-6-yl hydrogen sulfate] | more active than Avibactam | more active than Avibactam
O=C1N2C[C@@H](CC[C@H]2c2nnc(CN[C@@H]3CCNC3)o2)N1OS(=O)(=O)O [Compound 766, (2S,5R)-7-oxo-2-(5-(((R)-pyrrolidin-3-ylamino)methyl)-1,3,4-oxadiazol-2-yl)-1,6-diazabicyclo[3.2.1]octan-6-yl hydrogen sulfate] | more active than Avibactam | more active than Avibactam
O=C1N2C[C@@H](CC[C@H]2c2nnc(C3CCNC3)o2)N1OS(=O)(=O)O (stereo partly drawn) [Compound 710, (2S,5R)-7-oxo-2-(5-(pyrrolidin-3-yl)-1,3,4-oxadiazol-2-yl)-1,6-diazabicyclo[3.2.1]octan-6-yl hydrogen sulfate] | more active than Avibactam | more active than Avibactam
O=C1N2C[C@@H](CC[C@H]2c2nnc(CC3CCNC3)o2)N1OS(=O)(=O)O (stereo partly drawn) [Compound 764, (2S,5R)-7-oxo-2-(5-(pyrrolidin-3-ylmethyl)-1,3,4-oxadiazol-2-yl)-1,6-diazabicyclo[3.2.1]octan-6-yl hydrogen sulfate] | more active than Avibactam | more active than Avibactam
N[C@H]1C[C@H](Cc2nnc([C@@H]3CC[C@@H]4CN3C(=O)N4OS(=O)(=O)O)o2)C1 [Compound 751, (2S,5R)-2-(5-(((1r,3S)-3-aminocyclobutyl)methyl)-1,3,4-oxadiazol-2-yl)-7-oxo-1,6-diazabicyclo[3.2.1]octan-6-yl hydrogen sulfate] | more active than Avibactam | more active than Avibactam
